Patent US8784910B2, “Antimicrobial compositions” (Lonza Inc., priority 2002, dated 2014)

Experiments:
Assay type in all cases: cell-based
[1] = system: Staphylococcus aureus (ATCC #6538); test: Minimum Inhibitory Concentration (MIC), autodilutor, nutrient broth, 96 well plates (Example 8); conditions: 72 hours at 32 degree Celsius, approximately 10^6 cfu/g, visual turbidity
Experimental: The Minimum Inhibitory Concentration (MIC) of the preservative mixtures was tested. The MIC is the lowest concentration of an ingredient that will inhibit the growth of an organism. This study was conducted using the Hamilton Micro Lab AT Plus Autodilutor Liquid handling System. The programs for the auto-dilutor were based on Lonza's Standard Application Method SAPM#412-01-1. The Hamilton Autodilutor was used to dilute the starting concentrations of the preservative combination by 50% using nutrient broth in 96 well micro titer plates and also to inoculate the microorganism in the test samples. This preservatives tested were Isocil™ (a blend of methyl isothiazolinone and methyl-chloro-isothiazolinone), Benzocil™ (benzisothiazolinone) and Lonzagard™ (benzethonium chloride), all of which are available from Lonza Inc. of Fair Lawn, N.J., in various concentrations and combinations with cinnamaldehyde. Controls were also included in each test plate. […] Results were determined by checking for growth in the test samples versus the control wells on each plate (visual determination of turbidity in the wells). […] Synergism values for the Isocil™/cinnamaldehyde and Benzocil™/cinnamaldehyde combinations were calculated from the MIC values reported in Table 11 by the method described in Kull, supra, referred to above, and are set forth in Tables 12 and 13, below.

[2] = system: S. aureus (ATCC #6538), P. aeruginosa (ATCC #9027), and E. coli (ATCC #8739); test: Mixed bacterial challenge of preserved anionic protein shampoo (Examples 4 and 7); conditions: 1.0% (1%) by weight in shampoo; for S. aureus, P. aeruginosa, and E. coli Day 0: Day 0, Table 3; for S. aureus, P. aeruginosa, and E. coli Day 7: Day 7, Table 3; for S. aureus, P. aeruginosa, and E. coli Day 14: Day 14, Table 3
Experimental: (§1) Each anionic shampoo sample in Table 3 below was tested as follows. A standardized mixed bacterial solution was prepared according to the following procedure. 3 agar stabs of S. aureus (ATCC #6538), P. aeruginosa (ATCC #9027), and E. coli (ATCC #8739) were separately incubated at about 35 EC for about 24 hours. Each stab was then washed with 3 mL of sterile 0.85% saline solution. The washes of the 3 stabs were pooled together to form an organism mixture. The absorbance of the organism mixture at 530 nm was adjusted to about 1.00 by adding saline. The spectrometer was calibrated with a saline blank. A 5 mL aliquot of the organism mixture was mixed together to produce the standardized mixed bacterial solution. Then, 40 g of each shampoo sample was inoculated with 0.2 mL of the standardized mixed bacterial solution and mixed. 1 g of the mixture was added to a sterile 20×150 mm screw cap test tube.
9 mL of sterile D/E neutralizer broth was added to the test tube and mixed to form a 10^−1 dilution. Serial dilutions were prepared through to a 10^−6 dilution with phosphate buffered water. The serial dilutions were plated onto Tryptic Soy Agar and incubated for 2 days at about 35 EC. Bacteria counts were performed after 0, 7, and 14 days.
(§2) The anionic protein shampoo composition was comprised of 35% by weight of sodium lauryl ether sulfate; 25% by weight of triethanolamine lauryl sulfate; 3% by weight coconut diethanolamide (cocamide DEA); 1% by weight of hydrolyzed collagen, available as Polypro 5000™ from Hormel Foods of Austin, Minn.; and 36% by weight of deionized water.
The cinnamaldehyde and other preservative containing samples were prepared by mixing the appropriate amounts of the preservatives and the aforementioned anionic protein shampoo composition and heating the mixture to about 50 EC for about 15 minutes.
Synergism for the cinnamaldehyde/Glydant 2000™ solutions in Table 8 against S. aureus, P. aeruginosa, and E. coli was calculated by the method described in C. E. Kull et al., A Mixtures of Quaternary Ammonium Compounds and Long-chain Fatty Acids as Antifungal Agents@, Applied Microbiology, 9:538-541 (1961). The synergism value (QA/Qa+QB/Qb) in Table 7 was determined. […] Qa is the concentration of cinnamaldehyde alone (in percent by weight) required to yield 100% retardation of the bacteria. QB is the concentration of Glydant 2000™ (in percent by weight) in the mixture, which yielded 100% retardation of the bacteria. Qb is the concentration of Glydant 2000™ alone (in percent by weight) required to yield 100% retardation of the bacteria.
When the value of (QA/Qa+QB/Qb) is less than one, the mixture is synergistic. Values for (QA/Qa+QB/Qb) of 1 and greater than 1, represent an additive effect and an antagonistic effect, respectively.

[3] = system: Candida albicans and Aspergillus niger; test: Mixed fungal challenge of preserved anionic protein shampoo (Example 5); conditions: 1.0% in shampoo
Experimental: Each anionic shampoo sample in Table 4 below was tested as follows. A standard mixed […] solution was prepared according to the following procedure. 2 agar […] of Candida albicans and 4 agar […] of Aspergillus niger were separately incubated at about 25 EC for about 48 hours and 7 days, respectively. Each slant was washed with 3 mL of sterile 0.85% saline solution, collected and macerated in a tissue grinder. Sufficient amounts of 0.85% saline solution were added to each slant to obtain a visual count under a microscope with a Neubauer Hemocytometer of each innoculum of C. albicans and A. niger. Equal volumes of each standardized innoculum of C. albicans and A. niger were mixed together to form the standardized mixed fungal solution. 40 g of each shampoo sample was inoculated with 0.4 mL of the standardized mixed fungal solution and mixed. 1 g of the mixture was added to a sterile 20×150 mm screw cap test tube. 9 mL of sterile D/E neutralizer broth was added to the test tube and mixed to form a 10^-1 dilution. Serial dilutions were prepared through to a 10^-6 dilution with phosphate buffered water. The serial dilutions were plated onto Sabourand dextrose agar and incubated 5 days at about 25 EC. […] The anionic protein shampoo composition is described in Example 4. The shampoo samples were prepared by mixing the appropriate amounts of the preservatives and the anionic protein shampoo composition and heating the mixture to about 50 EC for about 15 minutes.

[4] = system: S. aureus (ATCC #6538), P. aeruginosa (ATCC #9027), and E. coli (ATCC #8739); test: Mixed bacterial challenge of preserved anionic protein shampoo, pH 6.5 (Example 3); conditions: 0.45% w/w in shampoo; for bacteria count Day 0: pH 6.5, Day 0; for bacteria count Day 7: pH 6.5, Day 7; for bacteria count Day 14: pH 6.5, Day 14; for bacteria count Day 28: pH 6.5, Day 28
Experimental: as §1, with “FIGS. 1-3 were” for “Table 3 below was”
9 mL of sterile D/E neutralizer broth was added to the test tube and mixed to form a 10^−1 dilution. Serial dilutions were prepared through to a 10^−6 dilution with phosphate buffered water. The serial dilutions were plated onto Tryptic Soy Agar and incubated for 2 days at about 35 EC. […]
as §2
The antimicrobial composition containing samples were prepared by mixing the appropriate amounts of the antimicrobial ingredients and the aforementioned anionic protein shampoo composition and heating the mixture to about 50 EC for about 15 minutes.
The pH of the shampoo was adjusted to 6.5. […]

Row | Structure (SMILES) | S. aureus, P. aeruginosa, and E. coli Day 0 [2] | S. aureus, P. aeruginosa, and E. coli Day 7 [2] | S. aureus, P. aeruginosa, and E. coli Day 14 [2] | bacteria count Day 0 [4] | bacteria count Day 7 [4] | bacteria count Day 14 [4] | also measured
1 | O=c1[nH]sc2ccccc12 [Benzocil ™, benzisothiazolinone] |  |  |  |  |  |  | MIC for S. Aureus [1]: 9.375 ppm (active)
2 | OCc1ccccc1 [Benzyl Alcohol, reference compound] | 3.0 × 10^7 cfu/g | 5.0 × 10^6 cfu/g | 5.3 × 10^6 cfu/g |  |  |  | Fungal Plate Count Day 0 ([3]; Day 0): 1.0 × 10^5 cfu/g; Fungal Plate Count Day 7 ([3]; Day 7): 6.0 × 10^3 cfu/g; Fungal Plate Count Day 14 ([3]; Day 14): 6.0 × 10^4 cfu/g
3 | CC(C)=CCCC(C)=CC=O [Citral] | 3.0 × 10^7 cfu/g | 3.0 × 10^7 cfu/g | 3.0 × 10^7 cfu/g |  |  |  | 
4 | C=CCc1ccc(O)c(OC)c1 [Eugenol] | 3.0 × 10^7 cfu/g | 3.0 × 10^7 cfu/g | 3.0 × 10^7 cfu/g |  |  |  | 
5 | CC(C)=CCC/C(C)=C/CO [Gerniol] | 3.0 × 10^7 cfu/g | 3.0 × 10^7 cfu/g | 3.0 × 10^7 cfu/g |  |  |  | 
6 | CC(C)=CCC/C(C)=C\CO [Nerol] | 3.0 × 10^7 cfu/g | 3.0 × 10^7 cfu/g | 3.0 × 10^7 cfu/g |  |  |  | 
7 | C=C(C)[C@H]1CC=C(C)CC1 [d-Limonene] | 3.0 × 10^7 cfu/g | 3.0 × 10^7 cfu/g | 3.0 × 10^7 cfu/g |  |  |  | 
8 | C/C=C/C=C/C(=O)[O-].[K+] [potassium sorbate] |  |  |  | 1-3 × 10^6 cfu/g | 1 × 10^5 cfu/g | 6 × 10^4 cfu/g | 
9 | O=C([O-])c1ccccc1.[Na+] [sodium benzoate] |  |  |  | 1-3 × 10^6 cfu/g | 1 × 10^5 cfu/g | 7 × 10^5 cfu/g | bacteria count Day 28 [4]: <10 cfu/g
10 | O=C1O[C@H]([C@H](O)CO)C([O-])=C1O.[Na+] [sodium erythorbate] |  |  |  | 1-3 × 10^6 cfu/g | >3 × 10^6 cfu/g | >3 × 10^6 cfu/g | bacteria count Day 28 [4]: >3 × 10^6 cfu/g
